# Laboratory results as given in PubChem BioAssay (NCI).
#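 Here, GI50 denotes the concentration required for 50% inhibition of growth. Definition used: TGI = concentration required for complete inhibition of growth.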
# Experiments:
# Assay in all cases: inhibition of tumour cell growth, NCI panel, 384-well format
# SK-MEL-2 melanoma = test system: SK-MEL-2 melanoma
# OVCAR-3 ovarian = test system: OVCAR-3 ovarian
# A549 NSCLC = test system: A549 NSCLC
# NCI-H23 lung = test system: NCI-H23 lung
# MALME-3M melanoma = test system: MALME-3M melanoma
# SNB-75 CNS = test system: SNB-75 CNS
# HOP-92 NSCLC = test system: HOP-92 NSCLC
# HL-60(TB) leukemia = test system: HL-60(TB) leukemia
# U251 glioblastoma = test system: U251 glioblastoma
# OVCAR-8 ovarian = test system: OVCAR-8 ovarian
# MDA-MB-231 breast = test system: MDA-MB-231 breast
# TK-10 renal = test system: TK-10 renal
# HOP-62 NSCLC = test system: HOP-62 NSCLC
# T-47D breast = test system: T-47D breast
# SF-539 CNS = test system: SF-539 CNS
# A498 renal = test system: A498 renal
# OVCAR-4 ovarian = test system: OVCAR-4 ovarian
# RXF 393 renal = test system: RXF 393 renal
# HCT-15 colon = test system: HCT-15 colon
# EKVX NSCLC = test system: EKVX NSCLC
# DU-145 prostate = test system: DU-145 prostate
# COLO 205 colon = test system: COLO 205 colon
# IGROV1 ovarian = test system: IGROV1 ovarian
# UO-31 renal = test system: UO-31 renal
# NCI-H226 lung = test system: NCI-H226 lung
# KM12 colon = test system: KM12 colon
# NCI-H522 lung = test system: NCI-H522 lung
# K-562 leukemia = test system: K-562 leukemia
# ACHN renal = test system: ACHN renal
# SW-620 colon = test system: SW-620 colon
# M14 melanoma = test system: M14 melanoma
# NCI-H460 NSCLC = test system: NCI-H460 NSCLC
# PC-3 prostate = test system: PC-3 prostate
# SF-295 CNS = test system: SF-295 CNS
# SN12C renal = test system: SN12C renal
# SK-MEL-5 melanoma = test system: SK-MEL-5 melanoma
# SK-MEL-28 melanoma = test system: SK-MEL-28 melanoma
# 786-0 renal = test system: 786-0 renal
# HT29 colon = test system: HT29 colon
# MOLT-4 leukemia = test system: MOLT-4 leukemia
# CAKI-1 renal = test system: CAKI-1 renal
# BT-549 breast = test system: BT-549 breast
# MDA-MB-435 melanoma = test system: MDA-MB-435 melanoma
# HCT-116 colon = test system: HCT-116 colon
# SR leukemia = test system: SR leukemia
# MDA-MB-468 breast = test system: MDA-MB-468 breast
# UACC-62 melanoma = test system: UACC-62 melanoma
# SNB-19 CNS = test system: SNB-19 CNS
# HS 578T breast = test system: HS 578T breast
# SF-268 CNS = test system: SF-268 CNS
# NCI-H322M lung = test system: NCI-H322M lung
# MCF7 breast = test system: MCF7 breast
# SK-OV-3 ovarian = test system: SK-OV-3 ovarian
# OVCAR-5 ovarian = test system: OVCAR-5 ovarian
# UACC-257 melanoma = test system: UACC-257 melanoma
compound,measurement,setting,value
CC(C)(C)C[C@H]1NC(C(=O)NCC[C@H](O)CO)[C@H](c2cccc(Cl)c2)[C@@]12C(=O)Nc1cc(Cl)c(F)cc12 (stereo not given in full),GI50,SK-MEL-2 melanoma,14.6 µM
same,TGI,SK-MEL-2 melanoma,27.7 µM
same,GI50,OVCAR-3 ovarian,13.7 µM
same,TGI,OVCAR-3 ovarian,26.7 µM
same,GI50,A549 NSCLC,2.94 µM
same,TGI,A549 NSCLC,14.1 µM
same,GI50,NCI-H23 lung,15 µM
same,TGI,NCI-H23 lung,28.3 µM
same,GI50,MALME-3M melanoma,0.582 µM
same,TGI,MALME-3M melanoma,14.7 µM
same,GI50,SNB-75 CNS,10.9 µM
same,TGI,SNB-75 CNS,22.9 µM
same,GI50,HOP-92 NSCLC,14.7 µM
same,TGI,HOP-92 NSCLC,27.8 µM
same,GI50,HL-60(TB) leukemia,4.2 µM
same,TGI,HL-60(TB) leukemia,16.5 µM
same,GI50,U251 glioblastoma,14.4 µM
same,TGI,U251 glioblastoma,27.6 µM
same,GI50,OVCAR-8 ovarian,16.4 µM
same,TGI,OVCAR-8 ovarian,30.1 µM
same,GI50,MDA-MB-231 breast,16.2 µM
same,TGI,MDA-MB-231 breast,29.8 µM
same,GI50,TK-10 renal,14.6 µM
same,TGI,TK-10 renal,28.2 µM
same,GI50,HOP-62 NSCLC,16.5 µM
same,TGI,HOP-62 NSCLC,30.2 µM
same,GI50,T-47D breast,11.7 µM
same,TGI,T-47D breast,24 µM
same,GI50,SF-539 CNS,13.4 µM
same,TGI,SF-539 CNS,26.3 µM
same,GI50,A498 renal,1.12 µM
same,TGI,A498 renal,11.7 µM
same,GI50,OVCAR-4 ovarian,11.9 µM
same,TGI,OVCAR-4 ovarian,24.3 µM
same,GI50,RXF 393 renal,2.38 µM
same,TGI,RXF 393 renal,15.3 µM
same,GI50,HCT-15 colon,17.4 µM
same,TGI,HCT-15 colon,31.5 µM
same,GI50,EKVX NSCLC,12.5 µM
same,TGI,EKVX NSCLC,25 µM
same,GI50,DU-145 prostate,15.8 µM
same,TGI,DU-145 prostate,29.4 µM
same,GI50,COLO 205 colon,15.8 µM
same,TGI,COLO 205 colon,29.3 µM
same,GI50,IGROV1 ovarian,6.37 µM
same,TGI,IGROV1 ovarian,20.2 µM
same,GI50,UO-31 renal,4.29 µM
same,TGI,UO-31 renal,15.9 µM
same,GI50,NCI-H226 lung,0.515 µM
same,TGI,NCI-H226 lung,2.17 µM
same,GI50,KM12 colon,1.6 µM
same,TGI,KM12 colon,12.8 µM
same,GI50,NCI-H522 lung,12.8 µM
same,TGI,NCI-H522 lung,25.5 µM
same,GI50,K-562 leukemia,13.7 µM
same,TGI,K-562 leukemia,27 µM
same,GI50,ACHN renal,1.36 µM
same,TGI,ACHN renal,10.6 µM
same,GI50,SW-620 colon,16.8 µM
same,TGI,SW-620 colon,30.6 µM
same,GI50,M14 melanoma,10.3 µM
same,TGI,M14 melanoma,22.1 µM
same,GI50,NCI-H460 NSCLC,14.6 µM
same,TGI,NCI-H460 NSCLC,27.9 µM
same,GI50,PC-3 prostate,13.1 µM
same,TGI,PC-3 prostate,25.9 µM
same,GI50,SF-295 CNS,12.9 µM
same,TGI,SF-295 CNS,25.6 µM
same,GI50,SN12C renal,17.1 µM
same,TGI,SN12C renal,30.9 µM
same,GI50,SK-MEL-5 melanoma,2.79 µM
same,TGI,SK-MEL-5 melanoma,16.4 µM
same,GI50,SK-MEL-28 melanoma,16.7 µM
same,TGI,SK-MEL-28 melanoma,30.4 µM
same,GI50,786-0 renal,15.6 µM
same,TGI,786-0 renal,29 µM
same,GI50,HT29 colon,15.8 µM
same,TGI,HT29 colon,29.4 µM
same,GI50,MOLT-4 leukemia,0.181 µM
same,TGI,MOLT-4 leukemia,0.341 µM
same,GI50,CAKI-1 renal,0.605 µM
same,TGI,CAKI-1 renal,11.7 µM
same,GI50,BT-549 breast,15.1 µM
same,TGI,BT-549 breast,28.5 µM
same,GI50,MDA-MB-435 melanoma,14.6 µM
same,TGI,MDA-MB-435 melanoma,27.8 µM
same,GI50,HCT-116 colon,0.962 µM
same,TGI,HCT-116 colon,13.8 µM
same,GI50,SR leukemia,0.2 µM
same,TGI,SR leukemia,0.394 µM
same,GI50,MDA-MB-468 breast,3.31 µM
same,TGI,MDA-MB-468 breast,16.1 µM
same,GI50,UACC-62 melanoma,0.591 µM
same,TGI,UACC-62 melanoma,11.1 µM
same,GI50,SNB-19 CNS,15.8 µM
same,TGI,SNB-19 CNS,29.4 µM
same,GI50,HS 578T breast,6.45 µM
same,TGI,HS 578T breast,20.4 µM
same,GI50,SF-268 CNS,16 µM
same,TGI,SF-268 CNS,29.6 µM
same,GI50,NCI-H322M lung,17.5 µM
same,TGI,NCI-H322M lung,31.4 µM
same,GI50,MCF7 breast,0.243 µM
same,TGI,MCF7 breast,1.77 µM
same,GI50,SK-OV-3 ovarian,13.9 µM
same,TGI,SK-OV-3 ovarian,27.1 µM
same,GI50,OVCAR-5 ovarian,15.9 µM
same,TGI,OVCAR-5 ovarian,29.5 µM
same,GI50,UACC-257 melanoma,1.76 µM
same,TGI,UACC-257 melanoma,5.36 µM
